Measurements from patent US10092586B2, “Glycolipid containing compositions for use in the treatment of tumors” (Agalimmune Limited (GB/GB), priority 2014, dated 2018).
Values after ≈ are worked out from the molar mass of the structure shown. Values joined by “and” are separate entries in the source; they are usually repeats but may differ in a detail not shown here. Equal entries are not always repeated. Where two headings read alike, the source gives them in different places.

Assays:
CHO-K1 cells [1] = assay: General cellular toxicity (CDC procedure without human serum); type: cell-based; conditions: absence of human serum; up to 500 μg/ml; CellTitreGlo
Protocol: (§1) α-Gal BOEL is titrated as follows. One 40 μl aliquot of α-Gal BOEL (2 mg/ml (obtained from Sigma as FSL-Galili(tri)™, Catalogue No. F9432)) is thawed and sonicated for 30 seconds. 40 μl of phosphate buffered saline (PBS) is added to the tube and vortexed for 10 seconds. 25 μl of this mix is added to 55 μl of PBS and mixed well. These dilutions are repeated to give a full titration of α-Gal BOEL in the desired concentration range.
(§2) CHO-K1 cells, which lack α-Gal epitopes, are resuspended in Dulbecco's PBS (DPBS) at 37° C. and centrifuged at 1000 rpm for 5 minutes. The supernatant is aspirated and the cell pellet resuspended to 1×10^7 cells/ml in 450 μl DPBS (37° C.). The cell pellet is washed again to remove all traces of serum.
(§3) An aliquot of the cell suspension (45 μl) is transferred to all tubes of α-Gal BOEL and mixed gently by inversion and incubated for 30 minutes at 37° C. […] The cell suspension (25 μl) is transferred either to an assay plate (standard white 96-well plate for luminescence readout (available from Corning)) to perform the CDC assay (A) or 50 μl transferred to a poly-d-lysine coated plate (available from Sigma) for the in-cell ELISA (B) to measure incorporation into cell membranes. […]
General cellular toxicity was measured by following the CDC assay procedure above but replacing human serum with pre-warmed media. […]

B16-F10 melanoma cells = assay: GT KO mouse melanoma model, distal tumour development; type: in vivo
Protocol: FIG. 7: Dose titration experiments with α-Gal BOEL. Anti-Gal producing GT KO mice were injected with 1×10^6 B16-F10 melanoma cells for primary tumour growth on their right flanks and 1×10^4 B16-F10 cells for secondary/distal tumour injection on the opposite flank. 5 days later, the main tumours were intra-tumourally treated with PBS (open circles), or 0.1 mg α-Gal BOEL (open triangles), or 0.5 mg α-Gal BOEL (closed triangles), or 1 mg of α-Gal BOEL (closed circles). The development of visible distal tumours as model for metastases development was followed for up to 32 days. The percentages of mice without visible distal tumours are plotted in the graphs. Statistical differences between the groups were determined by log-rank test.
FIG. 8: α-Gal BOEL activity in anti-Gal producing mice (i.e mice immunized with pig kidney membranes) or mice lacking anti-Gal (i.e. non-immunized mice). Hyper-immunized or non-immunized GT KO mice were injected with 1×10^6 B16-F10 cells for primary tumour growth on their right flanks and either 1×10^4 B16-F10 cells for secondary/distal tumour injection on the opposite flank. 4 days later, the main tumours were intra-tumourally treated with PBS in hyper-immunized mice (open circles), or 1 mg α-Gal BOEL (closed circles for hyper-immunized mice; open squares for non-immunized mice). The development of visible distal tumours as model for metastases development was followed for up to 28 days. The percentages of mice without visible distal tumours are plotted in the graph. Statistical differences between the groups were determined by log-rank test.
In vivo pharmacodynamics experiments were conducted to assess the effects of α-Gal BOEL in a GT KO mouse melanoma model with B16-F10 melanoma cells. […] As a result, the GT KO mice can be immunized with pig kidney membrane homogenate to produce titers of IgG and IgM anti-Gal antibodies that are similar to those seen naturally in humans. Such an immune response is induced since pig kidney membranes contain a high concentration of α-Gal epitopes on cell membranes and in intercellular matrix.
In the B16-F10 melanoma model, mice were injected with cultured B16-F10 cells on both flanks, on one side they were injected with 1×10^6 melanoma cells to create a primary tumour and with a reduced cell number on the contra-lateral flank (1×10^4 melanoma cells) to create a model of a ‘distant metastasis’ also referred to as secondary tumour. Primary tumours are injected intratumourally with α-Gal BOEL or vehicle control when a predefined tumour diameter is reached. The critical endpoint recorded is growth of the ‘distant’ tumour; this is used to measure the ability of an agent to elicit an effective protective anti-tumour immune response throughout the body. Doses from 0.1-2.5 mg of α-Gal BOEL were tested.

CHO-K1 cells [2] = assay: In-cell ELISA to measure incorporation of α-Gal BOEL into cells; type: cell-based; conditions: CHO-K1 cells incubated 30 minutes at 37° C.; M86 primary antibody
Protocol: as §1, §2, §3
100 μL/well of TMB Substrate is added the plate incubated at room temperature, protected from light. […] The absorbance at 450 nm is measured within 30 minutes of stopping the reaction (see FIG. 5).

CHO-K1 cells [3] = assay: Complement dependent cell cytotoxicity/cell lysis (CDC) assay; type: cell-based
Protocol: The assays below quantify both the amount of α-Gal BOEL inserted into the cell plasma membranes and the functional impact of α-Gal BOEL insertion in stimulating anti-Gal mediated complement-dependent cytotoxicity (CDC). α-Gal BOEL is titrated and incubated with CHO-K1 cells. These cells are either fixed and used in a whole cell ELISA assay, to determine incorporation of α-Gal into membranes, or incubated with anti-Gal antibody and human serum to measure CDC (or general cytotoxicity in the absence of complement from human serum).
as §1
CHO-K1 cells, which lack α-Gal epitopes, are resuspended in Dulbecco's PBS (DPBS) at 37° C. and centrifuged at 1000 rpm for 5 minutes. […]
An aliquot of the cell suspension (45 μl) is transferred to all tubes of α-Gal BOEL and mixed gently by inversion and incubated for 30 minutes at 37° C. […] The cell suspension (25 μl) is transferred either to an assay plate (standard white 96-well plate for luminescence readout (available from Corning)) to perform the CDC assay (A) or 50 μl transferred to a poly-d-lysine coated plate (available from Sigma) for the in-cell ELISA (B) to measure incorporation into cell membranes.
Anti-Gal antibody (from a range of sources, mouse anti-Gal containing plasma in this example) is added (25 μl/well) to the CDC assay plate (A) and then incubated for 30 minutes at 37° C. […] The human serum (containing active complement) is diluted in warm media (to a pre-determined level by titration in the assay) and 50 μl added to each well. […] This reagent luminescence is proportional to the […]. […] Luminescence output is measured using a standard 96-well plate reader (see FIG. 3).

CHO-K1 cells [4] = assay: Complement deposition assay (flow cytometry), human serum; type: cell-based; conditions: 500 μg/ml, 2.5% human serum
Protocol: (§4) 1×10^6 B16-F10 and CHO-K1 cells were harvested from growing cultures and incubated with 500 μg/ml αGal BOEL in PBS for 1 hour at 37° C., after which the cells were washed 3 times with PBS. After washing the CHO-K1 cells were incubated with either 2.5% normal (NHS) or heat-inactivated (HI NHS) human serum for 10 minutes at 37° C. The B16-F10 cells were incubated with either 2.5% serum from normal GT−/− mice (NMS) or 2.5% serum from pig kidney homogenate immunised mice (I NMS) for 10 minutes at 37° C. The cells were placed on ice and washed twice with ice-cold cell staining buffer (PBS+0.1% BSA). The cells were incubated with either anti-C3b (C3b, Pierce MAI-70054, diluted 1:1000 in cell staining buffer) or anti-SC5b-9 (MAC, Quidel A239, diluted 1:100 in cell staining buffer) for 30 minutes on ice. The cells were washed twice with ice cold cell staining buffer and incubated with FITC goat anti-mouse IgG (Abcam ab97022, diluted 1:2000 in cell staining buffer) for 30 minutes on ice. After 2 further washes with ice-cold cell staining buffer the cells were resuspended in ice-cold cell staining buffer plus 7-AAD (Biolegend 420403). The cells were analysed using a Beckman Coulter Cytomics FC500 flow cytometer, with data captured in the FL-1 channel. Data on the histograms presented are gated on live cells.

B16-F10 cells = assay: Complement deposition assay (flow cytometry), mouse serum; type: cell-based; conditions: B16 mouse melanoma cells, 500 μg/ml, 2.5% mouse serum
Protocol: as §4

[5] = test system: monoclonal mouse anti-Gal IgM (M86 hybridoma supernatant); assay: ELISA to demonstrate binding to anti-Gal antibodies; conditions: α-Gal BOEL dried in ELISA wells, serial dilution from 2 mg/ml
Protocol: A 96-well plate is first coated with α-Gal BOEL (obtained from Sigma as FSL-Galili(tri)™, Catalogue No. F9432). 50 μL PBS is added to each well. α-Gal BOEL is resuspended in PBS to a concentration of 2 mg/ml and 50 μL added to a well. Serial dilutions are performed by transferring 50 μL into wells across the plate making sure that each well is thoroughly mixed before transfer. The plate is left overnight to dry.
150 μL of blocking buffer (1×PBS/1% BSA) is added to the dry wells. The plate is covered and incubated at 37° C. for 2 hours. The well contents are discarded and the wells washed with PBS. 50 μL of the primary anti-Gal antibody (monoclonal mouse anti-Gal IgM in this example, M86 hybridoma supernatant) is added to each well. The plate is incubated at room temperature for 2 hours. The plate is washed 3 times with 200 μL washing buffer (1×PBS, 0.05% Tween).
50 μL of secondary goat anti-mouse IgM-HRP solution (Accurate Chemical; Catalogue No. JGM035020) is added to each well. The plate is covered and incubated at room temperature for 1 hour and then is washed 3 times with 200 μL washing buffer. 100 μL of a standard OPD (o-Phenylenediamine dihydrochloride) solution (e.g. Sigma; Catalogue No. P8287) is added to each well, incubated for 5 minutes and then 50 μL of stop solution (1 M sulfuric acid) is added. The well absorbances are immediately read at 492 nm (A492) (see FIG. 2).

CCCCCCCC/C=C\CCCCCCCC(=O)OC[C@H](COP(=O)(O)OCCNC(=O)CCCCC(=O)NCCCO[C@@H]1OC(CO)[C@@H](O[C@@H]2OC(CO)[C@H](O)[C@H](O[C@H]3OC(CO)[C@H](O)[C@H](O)C3O)C2O)[C@H](O)C1NC(C)=O)OC(=O)CCCCCCC/C=C\CCCCCCCC (stereo partly drawn) [α-Gal BOEL, (9Z,9′Z)-(2R)-3-(((2-(6-((3-(((2R,3R,4R,5S,6R)-3-acetamido-5-(((2S,3R,4S,5S,6R)-3,5-dihydroxy-6-(hydroxymethyl)-4-(((2R,3R,4S,5R,6R)-3,4,5-trihydroxy-6-(hydroxymethyl)tetrahydro-2H-pyran-2-yl)oxy)tetrahydro-2H-pyran-2-yl)oxy)-4-hydroxy-6-(hydroxymethyl)tetrahydro-2H-pyran-2-yl)oxy)propyl)amino)-6-oxohexanamido)ethoxy)(hydroxy)phosphoryl)oxy)propane-1,2-diyl bis(octadec-9-enoate)]
impact on cell viability / overt cytotoxicity (CHO-K1 cells [1]): no impact on cell viability
mice protected from secondary tumour development (B16-F10 melanoma cells; 1 mg intratumoural, anti-Gal producing (immunized) GT KO mice, up to 28 days): 80%
degree of protection versus 0.1-mg and 0.5-mg doses (B16-F10 melanoma cells; 1 mg intratumoural, anti-Gal producing GT KO mice, up to 32 days): higher degree of protection
protective activity against secondary tumour development (B16-F10 melanoma cells; 1 mg intratumoural, non-immunized GT KO mice (lacking anti-Gal)): lacked protective activity
activity response across doses (protection from distal tumour) (B16-F10 melanoma cells; 0.1-mg to 1-mg intratumoural doses in 100 μL vehicle, side-by-side, anti-Gal producing GT KO mice): dose-dependent activity response
incorporation into cells (absorbance at 450 nm) (CHO-K1 cells [2]): can be detected on the surface of CHO-K1 cells
EC50 (CHO-K1 cells [3]; Cricetulus griseus, CHO-K1, inhibition of CDC, CHO-K1 cells, mouse anti-Gal plasma, human serum, CellTiterGlo, single independent experiment, read-out: EC50): 1.36 µg/mL (≈ 0.934 µM)
EC50 (CHO-K1 cells [3]; Cricetulus griseus, CHO-K1, inhibition of CDC, over 4 independent experiments, read-out: Geomean / mean EC50): 1.35 µg/mL (≈ 0.927 µM)
EC50 (CHO-K1 cells [3]; inhibition of CDC, CHO-K1 cells, mouse anti-Gal plasma, human serum, CellTiterGlo, single independent experiment): 1.24 µg/mL and 1.38 µg/mL and 1.43 µg/mL
deposition of complement protein C3b (CHO-K1 cells [4]): leads to the deposition
deposition of complement protein MAC (CHO-K1 cells [4]): leads to the deposition
deposition of complement protein C3b (B16-F10 cells): leads to the deposition
deposition of complement protein MAC (B16-F10 cells): leads to the deposition
binding of monoclonal anti-Gal antibody (A492) [5]: binds to α-Gal epitopes on the α-Gal BOEL molecules
